Data set [1] concerns the target T1, Amyloid-beta precursor protein (Homo sapiens, UniProt P05067). In words: Inhibition of amyloid beta (1 to 42) aggregation (unknown origin) at 10 uM by thioflavin T fluorescence method.
For data set [2], the target named is Beta-secretase 1 (Homo sapiens) (UniProt P56817). Description: Inhibition of human recombinant BACE1 using M-2420 as a substrate at 3 uM […]. For orientation: DTNB colorimetry detects thiols as they appear.
The subject of data set [3] is HEK293. Description: Cytotoxicity against HEK293 cells assessed as reduction in cell viability up to 10 uM by MTT assay. Type of data set: cell-based. The conditions noted are these: human.
The target of data set [4] is T2, Acetylcholinesterase (Homo sapiens, UniProt P22303). Description: Inhibition of human recombinant AChE by Ellman's assay.
T2 sequence (P22303 whole entry): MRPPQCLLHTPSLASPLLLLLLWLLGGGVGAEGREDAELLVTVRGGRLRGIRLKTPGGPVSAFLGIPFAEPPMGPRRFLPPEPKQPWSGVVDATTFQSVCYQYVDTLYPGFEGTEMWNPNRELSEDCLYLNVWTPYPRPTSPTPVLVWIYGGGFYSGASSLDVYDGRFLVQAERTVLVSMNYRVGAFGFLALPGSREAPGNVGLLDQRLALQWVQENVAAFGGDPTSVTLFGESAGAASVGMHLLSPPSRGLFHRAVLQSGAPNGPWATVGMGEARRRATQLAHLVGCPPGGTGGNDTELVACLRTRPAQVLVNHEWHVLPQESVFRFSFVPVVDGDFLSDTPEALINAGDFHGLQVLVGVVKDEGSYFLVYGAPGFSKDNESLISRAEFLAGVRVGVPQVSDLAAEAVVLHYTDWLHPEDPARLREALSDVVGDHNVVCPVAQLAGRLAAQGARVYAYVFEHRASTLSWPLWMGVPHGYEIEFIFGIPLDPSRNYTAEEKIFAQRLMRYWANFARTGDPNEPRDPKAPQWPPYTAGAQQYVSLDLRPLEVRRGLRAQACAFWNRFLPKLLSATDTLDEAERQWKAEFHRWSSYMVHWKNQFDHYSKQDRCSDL
Data set [5] has as its target T1, Amyloid-beta precursor protein.
Description: Inhibition of amyloid beta (1 to 42) aggregation (unknown origin) by thioflavin T fluorescence method
Data set [6] has as its target T3, Cholinesterase (Homo sapiens, UniProt P06276).
Description: Inhibition of human recombinant BuChE by Ellman's assay
For data set [7], the species on record is Homo sapiens. Description: Selectivity ratio of IC50 for human recombinant AChE to IC50 for human recombinant BuChE.
Data set [8] concerns the target T2, Acetylcholinesterase. In words: Inhibition of human recombinant AChE at 67 uM by Ellman's assay.
The species entered for data set [9] is Homo sapiens. In words: Selectivity ratio of IC50 for human recombinant BuChE to IC50 for human recombinant AChE.
Data set [10] deals with T3, Cholinesterase. In words: Inhibition of human recombinant BuChE hydrolyzing activity at 67 uM by Ellman's assay.
Data set [11] concerns the target T3, Cholinesterase. In words: Inhibition of human recombinant BuChE at 67 uM by Ellman's assay.
Data set [12] is described as follows: Cytotoxicity against embryonic chicken primary telencephalon neurons at 25 to 50 uM. Details: species or system Gallus gallus.
The species named for data set [13] is Gallus gallus. Description: Reduction in amyloid beta38 secretion in embryonic chicken primary telencephalon neurons. Type of data set: functional.
The species named for data set [14] is Gallus gallus. Description: Reduction in amyloid beta42 secretion in embryonic chicken primary telencephalon neurons. It counts as functional.
The species named for data set [15] is Gallus gallus. In words: Reduction in amyloid beta40 secretion in embryonic chicken primary telencephalon neurons. Type of data set: functional.

What is called inhibition is the percentage by which the read-out fell short of the control. A word on the IC50: it is the concentration that gives 50% inhibition.

Structures are written as SMILES. Calls of active or inactive are those of the source. The rule behind the calls is not given here.

T1 sequence (P05067 whole entry): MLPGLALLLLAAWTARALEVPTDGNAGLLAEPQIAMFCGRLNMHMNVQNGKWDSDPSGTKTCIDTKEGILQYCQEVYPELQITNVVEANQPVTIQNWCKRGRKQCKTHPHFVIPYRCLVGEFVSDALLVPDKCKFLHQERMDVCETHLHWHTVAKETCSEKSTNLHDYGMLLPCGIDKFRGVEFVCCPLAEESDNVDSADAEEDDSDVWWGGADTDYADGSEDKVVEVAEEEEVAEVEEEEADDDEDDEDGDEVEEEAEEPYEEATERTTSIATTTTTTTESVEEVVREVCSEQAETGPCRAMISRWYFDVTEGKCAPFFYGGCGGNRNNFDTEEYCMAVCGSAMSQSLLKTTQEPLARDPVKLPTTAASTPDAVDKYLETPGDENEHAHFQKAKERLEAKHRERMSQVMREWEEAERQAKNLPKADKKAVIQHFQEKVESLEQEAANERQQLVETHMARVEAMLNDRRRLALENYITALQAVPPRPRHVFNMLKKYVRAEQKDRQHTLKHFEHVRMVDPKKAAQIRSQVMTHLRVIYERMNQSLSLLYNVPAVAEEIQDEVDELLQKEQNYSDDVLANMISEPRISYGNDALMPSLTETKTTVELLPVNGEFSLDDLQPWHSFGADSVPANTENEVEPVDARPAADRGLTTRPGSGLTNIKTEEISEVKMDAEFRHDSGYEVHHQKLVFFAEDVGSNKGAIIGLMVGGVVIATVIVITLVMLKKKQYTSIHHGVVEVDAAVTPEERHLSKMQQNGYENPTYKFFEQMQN
T3 sequence (P06276 whole entry): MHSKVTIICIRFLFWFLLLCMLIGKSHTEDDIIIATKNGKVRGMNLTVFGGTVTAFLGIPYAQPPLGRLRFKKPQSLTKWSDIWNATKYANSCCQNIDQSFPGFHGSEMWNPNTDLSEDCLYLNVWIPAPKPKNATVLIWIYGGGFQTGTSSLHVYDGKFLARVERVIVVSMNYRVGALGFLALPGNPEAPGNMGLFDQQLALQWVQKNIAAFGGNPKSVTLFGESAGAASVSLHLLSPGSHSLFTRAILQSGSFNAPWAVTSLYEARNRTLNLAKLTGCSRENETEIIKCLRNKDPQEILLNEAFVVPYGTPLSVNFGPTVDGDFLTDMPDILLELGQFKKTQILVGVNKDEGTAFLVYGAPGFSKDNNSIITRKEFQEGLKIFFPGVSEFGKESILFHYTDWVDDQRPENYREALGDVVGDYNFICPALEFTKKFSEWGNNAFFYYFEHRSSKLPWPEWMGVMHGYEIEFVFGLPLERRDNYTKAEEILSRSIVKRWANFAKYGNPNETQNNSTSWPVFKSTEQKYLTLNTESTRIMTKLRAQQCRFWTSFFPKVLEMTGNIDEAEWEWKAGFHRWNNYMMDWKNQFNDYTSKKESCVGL
Sequence of Beta-secretase 1 (Homo sapiens) (P56817 whole entry): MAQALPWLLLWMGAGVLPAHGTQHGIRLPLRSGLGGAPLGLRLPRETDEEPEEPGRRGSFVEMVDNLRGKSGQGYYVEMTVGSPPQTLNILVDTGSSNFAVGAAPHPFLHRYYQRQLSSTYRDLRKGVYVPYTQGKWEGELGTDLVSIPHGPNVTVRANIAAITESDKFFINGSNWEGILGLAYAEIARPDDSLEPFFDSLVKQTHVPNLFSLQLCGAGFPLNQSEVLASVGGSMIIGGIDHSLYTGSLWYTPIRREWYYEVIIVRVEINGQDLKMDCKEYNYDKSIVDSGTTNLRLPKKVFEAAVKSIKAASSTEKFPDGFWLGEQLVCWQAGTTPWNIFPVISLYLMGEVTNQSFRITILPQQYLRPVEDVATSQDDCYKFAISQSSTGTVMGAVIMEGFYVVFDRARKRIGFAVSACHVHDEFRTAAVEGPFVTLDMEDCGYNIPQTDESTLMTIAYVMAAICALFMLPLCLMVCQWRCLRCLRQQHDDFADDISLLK

On to `CC(C(=O)NCCCNCCCNC1=CC(=O)C(NCCCNCCCNC(=O)C(C)c2ccc(-c3ccccc3)c(F)c2)=CC1=O)c1ccc(-c2ccccc2)c(F)c1` (racemic), for which the inhibition in data set [1] is above 90%; in data set [2] it was 20%.

`C[C@@H](C(=O)NCCCNCCCNC1=CC(=O)C(NCCCNCCCNC(=O)[C@H](C)c2ccc(-c3ccccc3)c(F)c2)=CC1=O)c1ccc(-c2ccccc2)c(F)c1`: the Activity entry in [3] is “Non-toxic”. Besides, the figures for the half-maximal inhibitory concentration (IC50) in [4], in data set [5] and in [6] were 27.8 µM, 4.77 µM and 9.98 µM, respectively. Also, the inhibition in [1] came to 87.2%; in [2], 20%.

Take `CCN(CCCCCCNC1=CC(=O)C(NCCCCCCN(CC)Cc2ccccc2OC)=CC1=O)Cc1ccccc1OC` [MEMOQUIN]: in data set [5], the IC50 stood at 5.93 µM.

As to `CC(C(=O)NCCCNC1=CC(=O)C(NCCCNC(=O)C(C)c2ccc(-c3ccccc3)c(F)c2)=CC1=O)c1ccc(-c2ccccc2)c(F)c1` (stereo not drawn), the figures for the IC50 in data set [4] and in data set [6] were above 20 µM and 116 µM, respectively. In addition, the inhibition was found to be 12.7% in data set [1] and 20% in data set [2].

As for `COc1ccc2c(c1)c(CC(=O)NCCCNCCCNC1=CC(=O)C(NCCCNCCCNC(=O)Cc3c(C)n(C(=O)c4ccc(Cl)cc4)c4ccc(OC)cc34)=CC1=O)c(C)n2C(=O)c1ccc(Cl)cc1`, the results for the half-maximal inhibitory concentration (IC50) in [4], in data set [5] and in data set [6] were 10.3 µM, 6.11 µM and 18.7 µM, respectively. The inhibition in [1] was found to be 80.1%; in data set [2], 20%.

With `CC1=C(CC(=O)NCCCNCCCNC2=CC(=O)C(NCCCNCCCNC(=O)CC3=C(C)/C(=C\c4ccc([S+](C)[O-])cc4)c4ccc(F)cc43)=CC2=O)c2cc(F)ccc2/C1=C/c1ccc([S+](C)[O-])cc1` (stereo not drawn), the half-maximal inhibitory concentration (IC50) came out at 9.54 µM in data set [4], 8.18 µM in data set [5] and 14.7 µM in data set [6]. For the same molecule, the inhibition was found to be 55% in data set [1] and 20% in data set [2].

With `O=C(Cc1ccccc1Nc1c(Cl)cccc1Cl)NCCCNCCCNC1=CC(=O)C(NCCCNCCCNC(=O)Cc2ccccc2Nc2c(Cl)cccc2Cl)=CC1=O`, the Activity result in data set [3] is “Non-toxic”. Also, the 50% inhibitory concentration (IC50) was 15.4 µM in data set [4], 3.15 µM in data set [5] and 0.36 µM in data set [6]. The results for the inhibition in data set [1] and in [2] were 74.9% and 20%, respectively. The Ratio IC50 in data set [7] was 42.8.

`CC(C(=O)NCCCCCCNC1=CC(=O)C(NCCCCCCNC(=O)C(C)c2ccc(-c3ccccc3)c(F)c2)=CC1=O)c1ccc(-c2ccccc2)c(F)c1` (stereo not drawn): the half-inhibitory concentration (IC50) in data set [4] and in data set [6] was above 20 µM each time. Also, the inhibition in data set [2] was 20%.

With `CC(C)Cc1ccc(C(C)C(=O)NCCCNCCCNC2=CC(=O)C(NCCCNCCCNC(=O)C(C)c3ccc(CC(C)C)cc3)=CC2=O)cc1` (stereo not drawn), the inhibition in data set [8] was 26.3%; in [1] it was 82.6%; in data set [10] it was 70%; in data set [2], 20%; in data set [11], below 10%. Also, the figures for the IC50 in [4], in [5] and in [6] were 0.6 µM, 4.83 µM and 22.5 µM, respectively. In addition, the Ratio IC50 in data set [9] is 37.5.

`CC(C(=O)NCCCNCCCNC1=CC(=O)c2ccccc2C1=O)c1ccc(-c2ccccc2)c(F)c1` (stereo not drawn): the Activity result in data set [3] is on record as “Non-toxic”; in data set [12], “Toxic”. Also, the IC50 in data set [4] came to 107 µM; in data set [5] it was 6.88 µM; in [6], 16.4 µM. Also, the figures for the inhibition in data set [1] and in [2] were 76.4% and 20%, respectively. The result in data set [13], in data set [14] and in data set [15] was Active.

With `C[C@H](C(=O)NCCCNCCCNC1=CC(=O)C(NCCCNCCCNC(=O)[C@@H](C)c2ccc(-c3ccccc3)c(F)c2)=CC1=O)c1ccc(-c2ccccc2)c(F)c1`, the Activity entry in data set [3] is “Toxic”. For the same molecule, the IC50 in data set [4] was 2.89 µM; in data set [5] it was 4.43 µM; in data set [6] it was 7.77 µM. Also, the values for the inhibition in data set [1] and in [2] were above 90% and 20%, respectively.

Source of the values: ChEMBL document CHEMBL3085683, “Quinones bearing non-steroidal anti-inflammatory fragments as multitarget ligands for Alzheimer's disease” (Bioorg Med Chem Lett, 2013).
